Columns and labels:
[1] = Appearance of formulation (state at 25° C.); assay type: physicochemical; conditions: Tables 2A/2B; formulation at the compounding molar ratio listed
[2] = Appearance of formulation (state at 25° C.); assay type: physicochemical; conditions: 25° C.
Description: Formulations 1 to 427 shown in Tables 1A to 1D were prepared by the above-described method using the components (A) and (B) at the compounding molar ratios shown in the tables, and their states at 25° C. were observed.

[3] = Water retention evaluation (moisture reduction rate); assay type: physicochemical; conditions: for Moisture eduction rate / Moisture content before test (A): 80 wt. % aqueous solution; for Moisture eduction rate: 24 hours at 35° C. and 25% RH, calculated from A and B; for Moisture content before test (A): Karl Fischer; for Presence or absence of hydrates: left until the moisture content remained unchanged, based on final moisture content
Description: 80 wt. % aqueous solutions of the formulations (organic salts) of the working examples 428 to 459 and comparative examples 1 to 5 in Tables 2A and 2B were prepared, and the water contents were measured using a Karl Fischer moisture meter (CA-200 manufactured by Mitsubishi Chemical Analytech Co., Ltd.). It was confirmed that the water contents of them were 20.0 wt. % (moisture content before test: A). Each of the 1.0 g samples was added to a screw tube, and left uncovered to stand still for 24 hours in a constant temperature and humidity bath (KCL-2000W manufactured by Tokyo Rikakikai Co., Ltd.) which was set at 35° C. and 25% RH. Moisture contents after being left for 24 hours were measured again (moisture content after test: B) to evaluate their water retention property by using the following formula for calculating the moisture reduction rates. After that, it was left to stand still until the moisture content remained unchanged, and determinations of the hydrate and the number of hydrated water were made based on the final moisture contents. • Moisture content before test: A (%) • Moisture content after test: B (%)

[4] = system: Staphylococcus aureus; experiment: Antibacterial property evaluation 1 (minimum inhibitory concentration, broth microdilution); assay type: cell-based; conditions: broth microdilution method
From the text: (§1) The following reagents, etc, were used for minimum inhibitory concentration (MIC) measurement and halo test. • Staphylococcus aureus: strain of NBRC15035, NITE • Escherichia coli: strain of […], NITE • Potassium lactate manufactured by Fujifilm Wako Pure Chemical • Medium of Muller-Hinton broth: Becton, Dickinson and Company • Media for revival of L-dried specimens “DAIGO” manufactured by Fujifilm Wako Pure Chemical • Calcium chloride manufactured by Fuji Film Wako Pure Chemical • Magnesium chloride manufactured by Fuji Film Wako Pure Chemical • Skim milk: Megmilk Snow Brand • Meat extract: from Solabia Biokar Diagnostics • Peptone: from Solabia Biokar Diagnostics • Sodium chloride manufactured by Fuji Film Wako Pure Chemical • Agar manufactured by Fuji Film Wako Pure Chemical
(§2) Working examples 556 to 583 and the comparative example 19 shown in Tables 8A and 8B were subjected to the minimum inhibitory concentration (MIC) test against Escherichia coli and Staphylococcus aureus by the broth microdilution method (as described in the standard method of the Japanese Society of Chemotherapy) to study antibacterial activities of the formulations (organic salt). Formulation (organic salt) concentrations at 250, 200, 150, 100, 50, 25, 12.5, 8, 4, 2, 0.8, 0.4, 0.2, 0.1, 0.05 mg/mL were evaluated, and the MICs are shown in Tables 8A and 8B.

[5] = system: Escherichia coli; experiment: as above; assay type: cell-based; conditions: broth microdilution method
From the text: as §1, §2

[6] = Solubility evaluation of polyoxyethylene alkyl ether (AE) in the formulations; assay type: physicochemical; conditions: polyoxyethylene alkyl ether (Peletex 2465); left at 25° C. for 24 hours, visual
Description: Into 20 wt. % aqueous solutions of the formulations (organic salts) shown in Table 10 are dissolved methylparaben (manufactured by Tokyo Kasei, hereinafter, paraben) at 1.0 wt. %, 0.5 wt. % and 0.25 wt. % at 80° C. to prepare the respective antibacterial compositions.
Polyoxyethylene alkyl ether (hereinafter referred to as AE) which is an antiviral substance recognized to be effective against viruses was also subjected to the similar procedure to evaluate the solubility based on the above-mentioned criteria. As the AE, Peletex 2465, manufactured by Miyoshi Oil & Fats Co., Ltd., was used. (Table 10)

[7] = Evaluation on permeability to skin (tape stripping, ascorbyl glucoside); assay type: in vivo; conditions: scale 1(Slow) to 5(Fast), 10 wt. % aqueous solution with 5 wt. % ascorbyl glucoside, layers 1 to 8, 5 test subjects
Description: As for the comparative example 33, ascorbyl glucoside was added so as to be 5% by mass with respect to water to prepare a sample solution. Then, a cotton material impregnated with the prepared 750 μL sample solution was applied to a 1 cm×3 cm area of the inner side of an upper arm for each of the 5 test subjects who have been kept in quiet for 30 minutes under constant temperature and humidity, and allowed to stand still for 5 minutes. After removing the cotton material, a new cotton material was used to remove the sample having been left on the skin surface and then allowed to stand still for 30 minutes. The horns in the first to eighth layers were then harvest from the application site using a Cellotape® (manufactured by Nichiban Co., Ltd.), and all of the layers obtained from the tape were used as samples for assay.
The obtained sample for assay was then extracted with 2 ml of ion-exchange water over the course of 10 min. […] The measured values of the samples for assay that were harvested from the 5 test subjects were averaged, and the averaged value was regarded as the permeation amount (μg/cm^2) to make a comparison of the total permeation amounts for the first to eighth layers. […]

[8] = system: Staphylococcus aureus; experiment: Antibacterial property evaluation 2 (halo test 1); assay type: cell-based; conditions: JISL1902
From the text: The following reagents, etc, were used for minimum inhibitory concentration (MIC) measurement and halo test. • Staphylococcus aureus: strain of NBRC15035, NITE • Escherichia coli: strain of […], NITE • Potassium lactate manufactured by Fujifilm Wako Pure Chemical • Medium of Muller-Hinton broth: Becton, Dickinson and Company • Media for revival of L-dried specimens “DAIGO” manufactured by Fujifilm Wako Pure Chemical • Calcium chloride manufactured by Fuji Film Wako Pure Chemical • Magnesium chloride manufactured by Fuji Film Wako Pure Chemical • […] Snow Brand • Meat extract: from Solabia Biokar Diagnostics • Peptone: from Solabia Biokar Diagnostics • Sodium chloride manufactured by Fuji Film Wako Pure Chemical • Agar manufactured by Fuji Film Wako Pure Chemical […]

[9] = system: Staphylococcus aureus; experiment: Antibacterial evaluation of antibacterial composition (with paraben); assay type: cell-based; conditions: 1.0 mg/mL paraben and/or 1.0 mg/mL formulation
Description: as §2
(§3) Antibacterial compositions prepared to have the composition having the components (A) and (B) and paraben in an equal amount (working examples 597 to 612, wherein 1.0 mg/mL of paraben and 1.0 mg/mL of the respective working examples 597 to 612 are combined to be 2.0 mg/mL of the composition); the comparative example 27 containing only of water and paraben (at the concentration of 1.0 mg/mL of paraben); and reference example 1 containing L-lysine and citric acid (at the concentration of 1.0 mg/mL) were each subjected to a test performed by a method similar to and as explained in the section of 9-1 based on the presence or absence of the bacterial growth to evaluate the presence or absence of the antibacterial activity.

[10] = system: Escherichia coli; experiment: as above; assay type: cell-based; conditions: 1.0 mg/mL paraben and/or 1.0 mg/mL formulation
Description: as §2, §3

[11] = Adhesiveness evaluation (adhesion rate to filter paper); assay type: physicochemical; conditions: vacuum dehydration for 8 hours at 60° C.
Description: The adhesion rates of the samples were each calculated from the weight change of the filter paper (Table 9). As a blank test, 100 μL of water was dropped on the filter paper, and this filter paper was dried in a vacuum. The change in weight was measured and used as the correction value.

| Structure (SMILES) | state at 25° C. [1] | state at 25° C. [2] | Moisture eduction rate [3] [%] | Moisture content before test (A) [3] [%] | Presence or absence of hydrates [3] | other results |
| --- | --- | --- | --- | --- | --- | --- |
| CC(O)C(=O)[O-].[K+] (stereo not shown) [Formulation 428] | Solid | Solid | 87.5 | 20.0 | Absent | MIC Staphylococcus aureus [4]: 150 mg/mL; MIC Escherichia coli [5]: 100 mg/mL |
| CCCC[N+](CCCC)(CCCC)CCCC.[Br-] [Formulation 430] | Solid | Solid | 70.0 | 20.0 | Absent | Solubility into 20 wt. % aqueous solution of the formulations: AE [6]: ⊚ (1.0 wt. % or more; no crystal precipitation was observed) |
| CCCCn1cc[n+](C)c1.F[B-](F)(F)F [Formulation 431] | Liquid | Solid | 71.5 | 20.0 | Absent | Solubility into 20 wt. % aqueous solution of the formulations: AE [6]: ⊚ (1.0 wt. % or more; no crystal precipitation was observed) |
| OCC(O)CO [Formulation 432] | Liquid |  | 89.7 | 20.0 | Absent | Relative infiltration rates of active component (ascorbyl glucoside) into skin [7]: 5 |
| CCO [Formulation 436] |  | Liquid |  |  |  | Halo test 1: Presence or absence of halo ([8]; Concentration 10 Wt. % aqueous solution on filter paper): Absent; Halo test 1: Presence or absence of halo ([8]; Concentration 50 Wt. % aqueous solution on filter paper): Absent |
| COC(=O)c1ccc(O)cc1 [compound 27, methylparaben] |  |  |  |  |  | presence or absence of the antibacterial activity [9]: does not exhibit any antibacterial activity; presence or absence of the antibacterial activity [10]: does not exhibit any antibacterial activity |
| CCO [ethanol, reference compound] |  |  |  |  |  | presence or absence of halos (halo test 1) ([8]; Staphylococcus aureus): no halo was observed; adhesion to the filter paper [11]: did not adhere to the filter paper |

— US20250186321A1, “FORMULATION USING AMINO ACID AND CARBOXYLIC ACID, ORGANIC SALT, AND COMPOSITION COMPRISING SAME AND USE THEREOF” (MIYOSHI OIL & FAT CO., LTD., priority 2021, published 2025)
